{"source": "patent US20080033169A1", "about": "“Crystalline Form Of Cefdinir Ammonium Salt As An Intermediate For The Preparation Of Pure Cefdinir” (priority 2004, published 2008)", "key": {"water solubility": {"assay": "water solubility", "assay_type": "physicochemical", "conditions": "in water"}, "stability": {"assay": "stability", "assay_type": "physicochemical", "conditions": "crystalline salt"}}}
{"smiles": "C=CC1=C(C(=O)O)N2C(=O)[C@@H](NC(=O)/C(=N\\O)c3csc(N)n3)[C@H]2SC1.N", "note": "[Crystalline Cefdinir ammonium salt, Cefdinir ammonium salt]", "values": [{"measurement": "water solubility", "setting": "water solubility", "result": "complete"}, {"measurement": "stability", "setting": "stability", "result": "good"}]}
